Assay results: article PMC13492380, “Dissecting Structural and Functional Determinants of Microtubules Stabilization through Guided Chemical Modulation” (Journal of Medicinal Chemistry, 2026)

System: kinesin-1 light chain KLC1 (anterograde transport) in SH-SY5Y cells
Assay: Cy5-KBP kinesin binding probe tracking, live-cell imaging
Type: cell-based, human
Conditions: for Cy5-KBP Distance, normalized to control / Cy5-KBP Speed, normalized to control: 1 μM PTX or 2.5 μM FTX2, 1a or 1b, mean ± SEM
Text: Building on our ability to chemically modulate MT structure, we next explored how these changes influence signaling patterns involved in MAPs interactions. Given that MTs are key players in intracellular transport – guiding organelles, vesicles and chromosomes via molecular motors like dyneins and kinesins – we assessed the impact of our compounds on transport dynamics in neuroblastoma SH-SY5Y cells. We combined live-cell imaging with previously developed tracking peptides (Figure A): Cy5-DBP, which encompasses the sequence that specifically recognizes Dynein Light Chain LC8 (retrograde transport), and Cy5-KBP, with a sequence that binds to the tetratricopeptide repeat of the kinesin-1 light chain KLC1 (anterograde transport). […] However, this was for a short incubation period (1 to 2.5 h, including imaging time) to avoid mitotic arrest or compromise cell viability. We then assessed particle behavior by measuring mean track displacement and mean track velocity.
Cy5-KBP and Cy5-DBP tracking peptides were synthesized at CIB-Margarita Salas (CSIC), following a published protocol. Briefly, the peptide chains were assembled via solid phase peptide synthesis (SPPS) using fluorenylmethyloxycarbonyl (Fmoc) as N-terminal protecting group and, subsequently labeled with the organic dye cyanine 5 (Cy5) via a maleimide–thiol reaction between the N-terminal cysteine residues of the peptides and the commercially available Cy5-maleimide. The final peptides were purified via reverse phase HPLC, dissolved in DMSO to a final 2.5 mM concentration and stored in small aliquots at −20 °C. SH-SY5Y cells were seeded into μ-Slide 8-wells ibiTreat plates (ibidi, flat polymer coverslip-bottom, tissue culture treated) at a concentration of 35,000 cells/well and incubated for 48 h at 37 °C and 5% CO2. […] After this time, the culture medium was replaced by the drug working solution containing either Cy5-KBP or Cy5-DBP, and the plate was incubated for an additional 15 min at 37 °C and 5% CO2. Then, the culture medium was replaced with drug working solution without labeled peptide and the cells were imaged using a confocal laser scanning microscope Leica TCS SP8 with a 63x oil immersion objective that included a humidified incubation chamber, a CO2 controller and a heating unit. Cy5 dye was excited at 635 nm and the fluorescence emission was collected at 645–690 nm. Images were recorded every 1.793 s for 3 min as 2-layer-z-stacks. For each condition, two to three different fields were imaged in two separate experiments.
Single-peptide trajectories were tracked with the TrackMate plugin from the Fiji package software (https://imagej.net/TrackMate). Particles with an estimated blob diameter of 1–1.5 μm were detected using the Laplacian of Gaussian (LoG) detector and linked with the Linear motion LAP tracker. Only spots that were at a maximum distance of 2 μm were linked. Trajectories with less than 6 spots were discarded since they were probably artifactual, and track mean displacement and track mean velocity were calculated and normalized to control cells. Data were further analyzed with MATLAB to perform a Mean Square Displacement (MSD) analysis to determine the mode of displacement of the peptides followed over time. Briefly, for each trajectory the MSD function was calculated and its log–log representation fitted with a linear function (log(MSD(τ)) = […] x log(τ) + C). MSD curves with an R^2 coefficient <0.8 were removed. The slope (α) of each MSD curve determines the motion type of each particle and particles were classified into: constrained particles (CM) α < 1, Brownian particles (BM) α = 1, and transported particles (TM) α > 1. Two independent experiments were performed using three biological replicates (N = 6). Statistical analyses of normalized track mean displacement and track mean velocity were performed using an unpaired t test with Welch’s correction in GraphPad Prism 8 software. […]

Row | Compound | Cy5-KBP Distance, normalized to control | Cy5-KBP Speed, normalized to control | effect on Cy5-KBP particle tracking (2.5 μM) | reduction in kinesin binding probe velocity (2.5 μM)
1 | CC(=O)OC1C(=O)C2(C)C(OC(=O)CCCCC(=O)OC3CCc4ccccc43)CC3OCC3(OC(C)=O)C2C(OC(=O)c2ccccc2)C2(O)CC(OC(=O)C(O)C(NC(=O)c3ccccc3)c3ccccc3)C(C)=C1C2(C)C (stereo not drawn) [1a, 7-O-(6″-O-(2‴,3‴-Dihydroinden-1‴-yl)hexanedioyl) Paclitaxel] | 0.92 ± 0.01 ratio to control | 0.95 ± 0.01 ratio to control | did not affect particle tracking | 
2 | COc1ccc2c(c1)CC(NC(=O)CCCCCCCC(=O)OC1CC3OCC3(OC(C)=O)C3C(OC(=O)c4ccccc4)C4(O)CC(OC(=O)C(O)C(NC(=O)c5ccccc5)c5ccccc5)C(C)=C(C(OC(C)=O)C(=O)C13C)C4(C)C)CC2 [1b, 7-O-((S)-9″-(7‴-Methoxy-1‴,2‴,3‴,4‴-tetrahydronaphthalen-2‴-yl)amino) −9″-oxononanoyl) Paclitaxel] | 0.85 ± 0.01 ratio to control | 0.87 ± 0.01 ratio to control |  | ~16%
3 | CC(=O)O[C@H]1C(=O)[C@]2(C)[C@@H](OC(=O)[C@H](C)NC(=O)c3ccc(-c4c5cc(F)c(=O)cc-5oc5cc(O)c(F)cc45)c(C(=O)O)c3)C[C@H]3OC[C@@]3(OC(C)=O)[C@H]2[C@H](OC(=O)c2ccccc2)[C@]2(O)C[C@H](OC(=O)[C@H](O)[C@@H](NC(=O)c3ccccc3)c3ccccc3)C(C)=C1C2(C)C [FTX2, Flutax2] | 0.910 ± 0.003 ratio to control | 0.85 ± 0.01 ratio to control |  | ~14%
